In assay [1] the target is T1, DNA-dependent protein kinase (DNA-PK) (Homo sapiens, UniProt P78527).
T1 construct: endogenous in cells; host or cells: Jurkat, clone E6-1 (ATCC TIB-152) cell lysate
Put plainly: kinobeads assay, DNA-PK. The assay is classed as binding. The following applies: kinobeads assay, Table 6; read-out: Inhibition values (IC50) DNAPK. The essentials: (§1)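 Competitive binding in Jurkat cell lysate (5 mg/ml total protein): test compounds at various concentrations competed with beads bearing immobilized phenylmorpholin-chromen ligand. Bead-bound kinases were eluted and quantified by antibody dot blot with infrared detection; IC50 values came from dose-response curves.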

The target of a further assay is T2, PI3K delta (PI3 Kd) (Homo sapiens, UniProt O00329).
T2 construct: endogenous in cells; host or cells: Jurkat, clone E6-1 (ATCC TIB-152) cell lysate
Kind of assay: kinobeads assay, PI3K delta. The following applies: kinobeads assay, Table 6; read-out: Inhibition values (IC50) PI3Kd. Format: binding. In outline:
as §1

The target in the next assay is T3, mTOR (Homo sapiens, UniProt P42345).
T3 construct: endogenous in cells; host or cells: Jurkat, clone E6-1 (ATCC TIB-152) cell lysate
Kind of assay: mTOR kinobeads assay (competitive binding in Jurkat cell lysate, immunodetection). As to conditions: kinobeads assay, Table 6; read-out: Inhibition values (IC50) mTOR. In outline:
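IC50 derived from dose-response curves of mTOR captured on immobilized phenylmorpholin-chromen beads, detected by antibody dot blot with infrared fluorescence.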

T1 sequence (P78527 whole entry): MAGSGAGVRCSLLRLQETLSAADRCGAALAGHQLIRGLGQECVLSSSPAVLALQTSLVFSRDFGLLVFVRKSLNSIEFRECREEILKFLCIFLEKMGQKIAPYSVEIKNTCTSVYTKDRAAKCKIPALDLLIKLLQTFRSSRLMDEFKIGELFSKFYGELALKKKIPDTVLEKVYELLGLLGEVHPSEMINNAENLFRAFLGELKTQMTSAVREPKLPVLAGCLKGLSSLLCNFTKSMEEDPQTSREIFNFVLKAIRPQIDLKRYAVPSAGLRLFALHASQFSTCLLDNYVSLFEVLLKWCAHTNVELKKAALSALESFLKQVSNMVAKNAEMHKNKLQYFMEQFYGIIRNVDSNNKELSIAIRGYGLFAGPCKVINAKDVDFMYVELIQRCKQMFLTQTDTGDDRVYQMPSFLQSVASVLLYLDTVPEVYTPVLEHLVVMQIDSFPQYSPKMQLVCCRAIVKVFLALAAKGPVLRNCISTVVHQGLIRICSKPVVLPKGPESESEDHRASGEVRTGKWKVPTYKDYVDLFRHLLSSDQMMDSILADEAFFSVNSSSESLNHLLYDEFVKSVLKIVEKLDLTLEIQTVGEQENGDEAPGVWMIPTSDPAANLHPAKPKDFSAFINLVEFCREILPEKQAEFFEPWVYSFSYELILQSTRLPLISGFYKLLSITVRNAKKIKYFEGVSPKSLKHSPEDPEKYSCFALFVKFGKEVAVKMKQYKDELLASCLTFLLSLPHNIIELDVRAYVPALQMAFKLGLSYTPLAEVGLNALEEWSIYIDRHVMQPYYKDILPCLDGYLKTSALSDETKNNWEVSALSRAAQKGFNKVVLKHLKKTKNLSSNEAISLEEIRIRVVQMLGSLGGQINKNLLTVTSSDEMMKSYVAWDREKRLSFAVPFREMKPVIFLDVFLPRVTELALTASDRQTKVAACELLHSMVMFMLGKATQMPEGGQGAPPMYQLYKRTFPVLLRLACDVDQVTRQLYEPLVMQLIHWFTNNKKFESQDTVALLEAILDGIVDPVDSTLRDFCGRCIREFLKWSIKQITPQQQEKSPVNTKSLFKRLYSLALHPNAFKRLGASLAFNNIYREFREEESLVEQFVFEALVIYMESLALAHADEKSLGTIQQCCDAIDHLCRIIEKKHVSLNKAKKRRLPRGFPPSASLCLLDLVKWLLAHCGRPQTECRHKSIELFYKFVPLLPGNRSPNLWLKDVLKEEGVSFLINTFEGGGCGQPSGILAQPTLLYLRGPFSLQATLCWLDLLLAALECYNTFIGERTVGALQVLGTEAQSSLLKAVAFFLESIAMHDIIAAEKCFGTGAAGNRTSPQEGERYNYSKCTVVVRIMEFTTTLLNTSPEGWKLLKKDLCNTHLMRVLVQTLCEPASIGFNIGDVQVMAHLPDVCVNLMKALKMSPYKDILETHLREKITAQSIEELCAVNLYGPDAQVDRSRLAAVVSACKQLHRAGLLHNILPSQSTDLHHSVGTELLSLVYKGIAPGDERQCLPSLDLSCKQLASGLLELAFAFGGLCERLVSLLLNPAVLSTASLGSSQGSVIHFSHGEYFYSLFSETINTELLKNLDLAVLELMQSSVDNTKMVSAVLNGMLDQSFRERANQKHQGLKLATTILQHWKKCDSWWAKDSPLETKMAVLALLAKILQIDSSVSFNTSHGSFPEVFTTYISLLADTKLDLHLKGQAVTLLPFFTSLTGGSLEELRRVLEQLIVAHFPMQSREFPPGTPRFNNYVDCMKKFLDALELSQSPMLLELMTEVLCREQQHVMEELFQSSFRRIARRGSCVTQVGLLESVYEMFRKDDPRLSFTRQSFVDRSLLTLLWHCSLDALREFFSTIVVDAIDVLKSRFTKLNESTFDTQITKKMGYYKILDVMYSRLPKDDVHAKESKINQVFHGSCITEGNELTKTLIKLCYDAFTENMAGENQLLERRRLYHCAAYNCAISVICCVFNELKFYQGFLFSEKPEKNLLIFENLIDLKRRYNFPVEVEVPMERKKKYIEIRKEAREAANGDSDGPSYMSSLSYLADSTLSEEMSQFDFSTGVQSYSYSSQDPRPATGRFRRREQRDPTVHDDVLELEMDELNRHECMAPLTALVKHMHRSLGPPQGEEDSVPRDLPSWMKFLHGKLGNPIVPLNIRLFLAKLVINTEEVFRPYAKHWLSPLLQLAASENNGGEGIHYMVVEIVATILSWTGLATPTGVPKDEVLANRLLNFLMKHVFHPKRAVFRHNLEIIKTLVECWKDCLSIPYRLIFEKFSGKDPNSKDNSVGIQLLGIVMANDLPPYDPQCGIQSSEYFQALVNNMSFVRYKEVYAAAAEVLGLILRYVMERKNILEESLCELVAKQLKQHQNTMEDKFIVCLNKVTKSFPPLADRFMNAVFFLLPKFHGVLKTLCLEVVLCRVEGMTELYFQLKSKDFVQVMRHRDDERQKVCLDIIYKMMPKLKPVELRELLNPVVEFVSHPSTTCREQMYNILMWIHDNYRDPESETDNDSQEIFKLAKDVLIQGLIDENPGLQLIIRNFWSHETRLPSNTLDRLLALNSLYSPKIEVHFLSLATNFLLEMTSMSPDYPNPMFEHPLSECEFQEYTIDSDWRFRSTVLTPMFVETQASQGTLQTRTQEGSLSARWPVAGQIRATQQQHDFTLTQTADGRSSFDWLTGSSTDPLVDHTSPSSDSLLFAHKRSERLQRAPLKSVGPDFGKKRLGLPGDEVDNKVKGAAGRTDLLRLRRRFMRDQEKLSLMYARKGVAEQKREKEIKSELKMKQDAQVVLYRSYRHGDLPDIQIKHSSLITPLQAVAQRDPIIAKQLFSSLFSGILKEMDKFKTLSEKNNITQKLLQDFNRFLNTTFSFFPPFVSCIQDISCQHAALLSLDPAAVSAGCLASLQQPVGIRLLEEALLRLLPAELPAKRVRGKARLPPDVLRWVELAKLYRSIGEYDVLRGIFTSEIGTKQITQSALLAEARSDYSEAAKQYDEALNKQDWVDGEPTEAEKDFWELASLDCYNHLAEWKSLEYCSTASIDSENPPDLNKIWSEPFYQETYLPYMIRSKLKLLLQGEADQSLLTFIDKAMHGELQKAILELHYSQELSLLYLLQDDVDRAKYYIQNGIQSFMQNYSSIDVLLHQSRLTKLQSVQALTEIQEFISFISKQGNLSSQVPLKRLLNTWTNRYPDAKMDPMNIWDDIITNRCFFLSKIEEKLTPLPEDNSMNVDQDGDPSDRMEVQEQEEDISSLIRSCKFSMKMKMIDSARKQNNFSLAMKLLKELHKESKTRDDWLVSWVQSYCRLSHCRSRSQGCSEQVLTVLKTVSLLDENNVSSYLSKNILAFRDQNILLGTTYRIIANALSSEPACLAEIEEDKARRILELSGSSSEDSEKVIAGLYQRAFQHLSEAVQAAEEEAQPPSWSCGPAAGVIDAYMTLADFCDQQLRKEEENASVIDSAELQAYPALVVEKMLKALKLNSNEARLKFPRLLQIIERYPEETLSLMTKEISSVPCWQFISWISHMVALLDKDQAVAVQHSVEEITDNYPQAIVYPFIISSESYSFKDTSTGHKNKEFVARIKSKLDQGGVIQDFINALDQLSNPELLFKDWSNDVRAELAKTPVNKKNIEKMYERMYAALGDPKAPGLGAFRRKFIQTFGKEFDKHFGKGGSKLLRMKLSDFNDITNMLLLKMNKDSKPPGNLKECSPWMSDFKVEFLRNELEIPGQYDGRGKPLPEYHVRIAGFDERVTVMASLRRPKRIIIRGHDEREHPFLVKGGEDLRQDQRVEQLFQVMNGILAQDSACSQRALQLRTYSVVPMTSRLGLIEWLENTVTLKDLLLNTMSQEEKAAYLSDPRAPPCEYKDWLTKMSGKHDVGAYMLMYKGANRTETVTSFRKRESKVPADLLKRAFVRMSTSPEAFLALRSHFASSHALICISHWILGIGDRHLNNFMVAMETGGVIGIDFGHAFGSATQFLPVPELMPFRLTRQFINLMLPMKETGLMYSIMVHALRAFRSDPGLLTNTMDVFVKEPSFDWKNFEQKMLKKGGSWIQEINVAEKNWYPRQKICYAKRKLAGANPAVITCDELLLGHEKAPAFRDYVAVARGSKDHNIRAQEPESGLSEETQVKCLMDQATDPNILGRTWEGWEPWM

As to `CCNC(=O)Nc1ccc(-c2nc3c(c(N4CCOC[C@@H]4C)n2)CN(C(C)C)C3)cc1` [Example 74, (S)-1-ethyl-3-(4-(6-isopropyl-4-(3-methylmorpholino)-6,7-dihydro-5H-pyrrolo[3,4-d]pyrimidin-2-yl)phenyl)urea], the IC50 in assay [1] is greater than 10 µM; on PI3K delta (PI3 Kd), greater than 10 µM; at mTOR, less than 0.1 µM.

Take `CCNC(=O)Nc1ccc(-c2nc3c(c(N4CCOC[C@@H]4C)n2)CCN(CC(C)C)C3)cc1.O=CO` [Example 76, (S)-1-ethyl-3-(4-(7-isobutyl-4-(3-methylmorpholino)-5,6,7,8-tetrahydropyrido[3,4-d]pyrimidin-2-yl)phenyl)urea formate]: the concentration for half-maximal inhibition (IC50) in assay [1] is greater than 10 µM; on PI3K delta (PI3 Kd) it was greater than 10 µM; on mTOR it was less than 0.1 µM.

Regarding `CCNC(=O)Nc1ccc(-c2nc3c(c(N4CCOC[C@@H]4C)n2)CCN(C(=O)OCC)C3)cc1` [Example 77, (S)-ethyl 2-(4-(3-ethylureido)phenyl)-4-(3-methylmorpholino)-5,6-dihydropyrido[3,4-d]pyrimidine-7(8H)-carboxylate], the results for the half-inhibitory concentration (IC50) (in assay [1]; on PI3K delta (PI3 Kd); at mTOR) were greater than 10 µM, greater than 10 µM and less than 0.1 µM, respectively.

On to `CCOC(=O)N1CCc2c(nc(-c3ccc(NC(=O)NC4CC4)cc3)nc2N2CCOC[C@@H]2C)C1` [Example 78, (S)-ethyl 2-(4-(3-cyclopropylureido)phenyl)-4-(3-methylmorpholino)-5,6-dihydropyrido[3,4-d]pyrimidine-7(8H)-carboxylate], for which the IC50 in assay [1] is greater than 10 µM; on PI3K delta (PI3 Kd), greater than 10 µM; on mTOR it was less than 0.1 µM.

Regarding `C[C@H]1COCCN1c1nc(-c2ccc(NC(=O)Nc3cccc(O)n3)cc2)nc2c1CN(C)C2` [Example 80, (S)-1-(6-hydroxypyridin-2-yl)-3-(4-(6-methyl-4-(3-methylmorpholino)-6,7-dihydro-5H-pyrrolo[3,4-d]pyrimidin-2-yl)phenyl)urea], the IC50 in assay [1] is greater than 10 µM; at PI3K delta (PI3 Kd), greater than 10 µM; at mTOR, less than 0.1 µM.

In the case of `CCNC(=O)Nc1ccc(-c2nc3c(c(N4CCOC[C@@H]4C)n2)CCN(C(=O)OC)C3)cc1` [Example 81, (S)-methyl 2-(4-(3-ethylureido)phenyl)-4-(3-methylmorpholino)-5,6-dihydropyrido[3,4-d]pyrimidine-7(8H)-carboxylate], the concentration for half-maximal inhibition (IC50) was greater than 10 µM in assay [1], greater than 10 µM at PI3K delta (PI3 Kd) and less than 0.1 µM on mTOR.

Regarding `COC(=O)N1CCc2c(nc(-c3ccc(NC(=O)NC4CC4)cc3)nc2N2CCOC[C@@H]2C)C1` [Example 83, (S)-methyl 2-(4-(3-cyclopropylureido)phenyl)-4-(3-methylmorpholino)-5,6-dihydropyrido[3,4-d]pyrimidine-7(8H)-carboxylate], the IC50 in assay [1] was greater than 10 µM; at PI3K delta (PI3 Kd) it was greater than 10 µM; at mTOR it was less than 0.1 µM.

As for `C[C@H]1COCCN1c1nc(-c2ccc(NC(=O)Nc3ccn(C)n3)cc2)nc2c1CN(C)C2` [Example 84, (S)-1-(1-methyl-1H-pyrazol-3-yl)-3-(4-(6-methyl-4-(3-methylmorpholino)-6,7-dihydro-5H-pyrrolo[3,4-d]pyrimidin-2-yl)phenyl)urea], the figures for the half-maximal inhibitory concentration (IC50) (in assay [1]; on PI3K delta (PI3 Kd); on mTOR) were greater than 10 µM, greater than 10 µM and 0.1 to 1 µM, respectively.

For the molecule `CCNC(=O)Nc1ccc(-c2nc3c(c(N4CCOC[C@@H]4C)n2)CN(C)C3)cc1F` [Example 85, (S)-1-ethyl-3-(2-fluoro-4-(6-methyl-4-(3-methylmorpholino)-6,7-dihydro-5H-pyrrolo[3,4-d]pyrimidin-2-yl)phenyl)urea], the IC50 in assay [1] is greater than 10 µM; on PI3K delta (PI3 Kd), greater than 10 µM; at mTOR, 0.1 to 1 µM.

For the molecule `COC(=O)N1Cc2nc(-c3ccc(NC(=O)NC4CC4)cc3)nc(N3CCOC[C@@H]3C)c2C1` [Example 86, (S)-methyl 2-(4-(3-cyclopropylureido)phenyl)-4-(3-methylmorpholino)-5H-pyrrolo[3,4-d]pyrimidine-6(7H)-carboxylate], the results for the IC50 (in assay [1]; on PI3K delta (PI3 Kd); on mTOR) were greater than 10 µM, greater than 10 µM and less than 0.1 µM, respectively.

With `CCNC(=O)Nc1ccc(-c2nc3c(c(N4CCOC[C@@H]4C)n2)CCN(C(=O)NCC)C3)cc1` [Example 87, (S)—N-ethyl-2-(4-(3-ethylureido)phenyl)-4-(3-methylmorpholino)-5,6-dihydropyrido[3,4-d]pyrimidine-7(8H)-carboxamide], the IC50 was greater than 10 µM in assay [1], greater than 10 µM on PI3K delta (PI3 Kd) and less than 0.1 µM at mTOR.

As for `CCNC(=O)N1CCc2c(nc(-c3ccc(NC(=O)NC4CC4)cc3)nc2N2CCOC[C@@H]2C)C1` [Example 88, (S)-2-(4-(3-cyclopropylureido)phenyl)-N-ethyl-4-(3-methylmorpholino)-5,6-dihydropyrido[3,4-d]pyrimidine-7(8H)-carboxamide], the IC50 in assay [1] is greater than 10 µM; on PI3K delta (PI3 Kd), greater than 10 µM; on mTOR, less than 0.1 µM.

With `CCNC(=O)Nc1ccc(-c2nc3c(c(N4CCOC[C@@H]4C)n2)CN(C(=O)OC)C3)cc1` [Example 89, (S)-methyl 2-(4-(3-ethylureido)phenyl)-4-(3-methylmorpholino)-5H-pyrrolo[3,4-d]pyrimidine-6(7H)-carboxylate], the IC50 was 1 to 10 µM in assay [1], greater than 10 µM on PI3K delta (PI3 Kd) and less than 0.1 µM on mTOR.

Regarding `CCNC(=O)Nc1ccc(-c2nc3c(c(N4CCOC[C@@H]4C)n2)CN(C(=O)OCC)C3)cc1` [Example 90, (S)-ethyl 2-(4-(3-ethylureido)phenyl)-4-(3-methylmorpholino)-5H-pyrrolo[3,4-d]pyrimidine-6(7H)-carboxylate], the IC50 in assay [1] is greater than 10 µM; on PI3K delta (PI3 Kd), greater than 10 µM; on mTOR, less than 0.1 µM.

In the case of `CCNC(=O)Nc1ccc(-c2nc3c(c(N4CCOC[C@@H]4C)n2)CCN(C(=O)Cc2cccnc2)C3)cc1` [Example 91, (S)-1-ethyl-3-(4-(4-(3-methylmorpholino)-7-(2-(pyridin-3-yl)acetyl)-5,6,7,8-tetrahydropyrido[3,4-d]pyrimidin-2-yl)phenyl)urea], the 50% inhibitory concentration (IC50) in assay [1] is greater than 10 µM; on PI3K delta (PI3 Kd), greater than 10 µM; on mTOR it was less than 0.1 µM.

As to `CCNC(=O)Nc1ccc(-c2nc3c(c(N4CCOCC4)n2)CCN(C)C3)cc1` [Example 93, 1-ethyl-3-(4-(7-methyl-4-morpholino-5,6,7,8-tetrahydropyrido[3,4-d]pyrimidin-2-yl)phenyl)urea], the half-inhibitory concentration (IC50) was greater than 10 µM in assay [1], greater than 10 µM on PI3K delta (PI3 Kd) and 0.1 to 1 µM at mTOR.

Take `CCNC(=O)Nc1ccc(-c2nc3c(c(N4CCOCC4)n2)CCN(C(=O)NCC)C3)cc1` [Example 94, N-ethyl-2-(4-(3-ethylureido)phenyl)-4-morpholino-5,6-dihydropyrido[3,4-d]pyrimidine-7(8H)-carboxamide]: the IC50 in assay [1] is greater than 10 µM; on PI3K delta (PI3 Kd), greater than 10 µM; on mTOR, 0.1 to 1 µM.

For the molecule `CCNC(=O)Nc1ccc(-c2nc3c(c(N4CCOCC4)n2)CCN(C(=O)OCC)C3)cc1` [Example 96, ethyl 2-(4-(3-ethylureido)phenyl)-4-morpholino-5,6-dihydropyrido[3,4-d]pyrimidine-7(8H)-carboxylate], the IC50 is greater than 10 µM in assay [1], greater than 10 µM at PI3K delta (PI3 Kd) and 0.1 to 1 µM at mTOR.

As to `CCNC(=O)Nc1ccc(-c2nc3c(c(N4CCOCC4)n2)CCN(C(C)=O)C3)cc1` [Example 97, 1-(4-(7-acetyl-4-morpholino-5,6,7,8-tetrahydropyrido[3,4-d]pyrimidin-2-yl)phenyl)-3-ethylurea], the results for the 50% inhibitory concentration (IC50) (in assay [1]; at PI3K delta (PI3 Kd); at mTOR) were 1 to 10 µM, 1 to 10 µM and less than 0.1 µM, respectively.

Take `CCNC(=O)Nc1ccc(-c2nc3c(c(N4CCOCC4)n2)CCN(C(=O)C(C)(C)C)C3)cc1` [Example 98, 1-ethyl-3-(4-(4-morpholino-7-pivaloyl-5,6,7,8-tetrahydropyrido[3,4-d]pyrimidin-2-yl)phenyl)urea]: the IC50 was greater than 10 µM in assay [1], greater than 10 µM at PI3K delta (PI3 Kd) and less than 0.1 µM on mTOR.

On to `CCNC(=O)Nc1ccc(-c2nc3c(c(N4CCOCC4)n2)CN(C(=O)C(C)(C)C)C3)cc1` [Example 100, 1-ethyl-3-(4-(4-morpholino-6-pivaloyl-6,7-dihydro-5H-pyrrolo[3,4-d]pyrimidin-2-yl)phenyl)urea], for which the IC50 in assay [1] was greater than 10 µM; on PI3K delta (PI3 Kd) it was greater than 10 µM; on mTOR it was 0.1 to 1 µM.

Turning to `C[C@H]1COCCN1c1nc(-c2ccc(NC(=O)NC3CC3)cc2)nc2c1CN(CC(F)(F)F)C2` [Example 101, (S)-1-cyclopropyl-3-(4-(4-(3-methylmorpholino)-6-(2,2,2-trifluoroethyl)-6,7-dihydro-5H-pyrrolo[3,4-d]pyrimidin-2-yl)phenyl)urea], the IC50 in assay [1] is greater than 10 µM; at PI3K delta (PI3 Kd) it was greater than 10 µM; at mTOR it was 0.1 to 1 µM.

Consider `CCNC(=O)Nc1ccc(-c2nc3c(c(N4CCOC[C@@H]4C)n2)CCN(C(=O)CO)C3)cc1` [Example 102, (S)-1-ethyl-3-(4-(7-(2-hydroxyacetyl)-4-(3-methylmorpholino)-5,6,7,8-tetrahydropyrido[3,4-d]pyrimidin-2-yl)phenyl)urea], for which the 50% inhibitory concentration (IC50) was greater than 10 µM in assay [1], greater than 10 µM at PI3K delta (PI3 Kd) and less than 0.1 µM at mTOR.

`CCNC(=O)Nc1ccc(-c2nc3c(c(N4CCOC[C@@H]4C)n2)CN(C(=O)OCC)C3)cc1F` [Example 103, (S)-ethyl-2-(4-(3-ethylureido)-3-fluorophenyl)-4-(3-methylmorpholino)-5H-pyrrolo[3,4-d]pyrimidine-6(7H)-carboxylate]: the IC50 was greater than 10 µM in assay [1], greater than 10 µM at PI3K delta (PI3 Kd) and 0.1 to 1 µM at mTOR.

The values above are taken from patent US8785457B2 (Cellzome Limited, priority 2009, dated 2014).
